Entries after “also recorded” stand apart in the source; their conditions may differ.
Assays:
[1] = cited from earlier work
forearm microvessels [2] = assay: Forearm blood flow responses to intra-arterial infusions by venous occlusion plethysmography in white and black hypertensive patients; type: in vivo, human; settings: intra-arterial infusion
forearm microvessels [3] = assay: Forearm blood flow responses by venous occlusion plethysmography in normotensive white and black patients; type: in vivo, human; settings: 46 normotensive white and black patients matched for age and gender
Experimental: FIGS. 3A and 3B show forearm blood flow responses to nitroprusside (FIG. 3A) and methacholine (FIG. 3B) that were assessed by venous occlusion plethysmography in 25 white and 21 black patients without hypertension.
To investigate the issue of whether NO deficiency is a primary or secondary phenomenon in hypertensive black patients, 46 normotensive white and black patients who were matched for age and gender were compared. […] These findings are consistent with recently published results by other investigators (Lang et al, N EngI J Med, 333:155-160 (1995); Cardillo et al, Hypertension 31:1235-1239 (1998)).

forearm microvessels [4] = assay: Forearm microvascular vasodilator responses in salt-sensitive versus salt-resistant normotensive black patients; type: in vivo, human
Experimental: To explore the relation between salt-sensitivity and endothelium-derived NO action in black patients prior to the development of hypertension, the blood pressure response to salt-loading and salt-deprivation using an established inpatient protocol (Weinberger et al, Hypertension, 8:II-127-II-134 (1986)) in a group of normotensive black patients was assessed. Briefly, blood pressure was continuously monitored non-invasively during a salt load (sodium 458 mEq over 24 hours) and during a period of salt depletion (furosemide treatment and sodium intake 10 mEq over 24 hours). Patients were considered to be salt-sensitive if mean blood pressure was at least 10 mm Hg higher during the salt loading period (Weinberger et al, Hypertension, 8:II-127-II-134 (1986)).

conduit arteries = assay: Conduit vessel function by brachial ultrasound technique (nitroglycerin-mediated dilation); type: in vivo, human; settings: for NTG-response (%): mean ± SD
From the text: The effects of hypertension and race on conduit vessel function were examined using a well-established brachial ultrasound technique (Vita et al, Lanzer & Lipton, Eds., Diagnostics of Vascular Diseases: Principles and Technology. Berlin:Springer-Verlag, pp.249-259 (1996)) in 370 patients (178 black, 192 white). […] Further, systolic blood pressure was inversely correlated with flow-mediated dilation (r=−0.30, P<0.001) and nitroglycerin-mediated dilation (r=−0.33, P<0.001). Diastolic pressure correlated to a similar extent with vascular function. By multiple linear regression analysis, vessel size and systolic blood pressure were the only independent predictors of flow-mediated dilation in this sizable group of patients.

SMILES: O=[N+]([O-])O[C@H]1CO[C@H]2[C@@H]1OC[C@H]2O[N+](=O)[O-] [isosorbide dinitrate, 1,4,3,6-dianhydro-D-glucitol-2,5-dinitrate]
- solubility in organic solvents ([1]; organic solvents such as ethanol, ether and chloroform): freely soluble
- solubility in water ([1]; water): sparingly soluble

SMILES: CC(=O)OC(C)C[N+](C)(C)C (stereo not shown) [methacholine]
- vasodilator (forearm blood flow) response, black compared to white hypertensive patients (forearm microvessels [2]; 36 white and black hypertensive patients): impaired; also recorded: markedly worse
- dilator response, hypertensive patients compared to age-matched normotensive controls (forearm microvessels [2]; hypertensive versus normotensive controls): significantly reduced
- vasodilator response, black compared to white normotensive patients (forearm microvessels [3]): no racial difference; also recorded: not significantly different
- vasodilator response, salt-sensitive compared to salt-resistant patients (forearm microvessels [4]; normotensive black patients, repeated measures ANOVA): trends for impaired vasodilator responses

SMILES: O=[N+]([O-])OCC(CO[N+](=O)[O-])O[N+](=O)[O-] [nitroglycerin]
- nitroglycerin-mediated dilation according to race (conduit arteries; 370 patients (178 black, 192 white)): no significant differences
- NTG-response (%) (conduit arteries; Black Patients, Hypertensive, p < 0.001 compared to race matched normotensives): 16.4 ± 7.1 %
- NTG-response (%) (conduit arteries; Black Patients, Normotensive): 20.6 ± 8.4%
- NTG-response (%) (conduit arteries; White Patients, Hypertensive, p < 0.001 compared to race matched normotensives): 14.6 ± 6.2 %
- NTG-response (%) (conduit arteries; White Patients, Normotensive): 18.1 ± 8.1%
- effect of hypertension on nitroglycerin-mediated dilation (conduit arteries; hypertensive versus normotensive patients): highly significant reduction

SMILES: COc1ccc(CCN(C)CCCC(C#N)(c2ccc(OC)c(OC)c2)C(C)C)cc1OC (stereo not shown) [verapamil]
- vasodilator response, salt-sensitive compared to salt-resistant patients (forearm microvessels [4]; human, in vivo): equivalent
